These results are taken from US10793568B2, “Hormone receptor modulators for treating metabolic conditions and disorders” (ARDELYX, INC., priority 2016, dated 2020).

Where only a bound is given, the exact number is not on record here.

The target of experiment [1] is ligand binding domain of human FXR (Homo sapiens (Human), UniProt Q96RI1). The experiment can be described thus: FXR ligand binding assay (LanthaScreen TR-FRET, SRC2-2 peptide recruitment). As to conditions: for pEC50: -log EC50, concentration required to produce 50% activation; for Emax: extent of activation relative to GW4064, read-out: % Efficacy.
Sequence of ligand binding domain of human FXR (Q96RI1 262-486): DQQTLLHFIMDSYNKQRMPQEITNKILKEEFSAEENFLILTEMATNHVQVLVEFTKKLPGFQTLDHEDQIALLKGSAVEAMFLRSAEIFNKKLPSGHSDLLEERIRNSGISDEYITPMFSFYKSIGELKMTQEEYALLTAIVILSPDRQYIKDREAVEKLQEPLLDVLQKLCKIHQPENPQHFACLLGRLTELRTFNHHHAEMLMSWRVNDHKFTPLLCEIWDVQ
In experiment [2] the target is human Farnesoid X receptor ligand-binding domain/Gal4 DNA binding domain chimera (Homo sapiens (Human), UniProt Q96RI1). The experiment can be described thus: Cell-based assay of FXR activation (FXR-UAS-bla HEK 293T beta-lactamase reporter). The settings on record: cellular FXR beta-lactamase reporter assay; for Emax: HEK-293T, extent of activation relative to GW4064, read-out: % Efficacy. The method, boiled down:
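Readout is cleavage of the CCF4 FRET substrate (409 nm excitation, blue 447 nm signal) by beta-lactamase, expressed under UAS control after a Gal4–human FXR LBD chimera is activated in HEK 293T cells. Compounds were added as 3-fold dilutions for 16 h at 37 °C in 2% charcoal-stripped FBS medium. Curves were fit to a 3-parameter logistic equation to give pEC50, with % activation relative to GW4064.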
A general note: Reporter assays use an easily measured gene product as a stand-in for the process of interest.

The mark [3] stands for this setting: FXR-UAS-bla HEK 293T cells, 16 h, pEC50 = -log EC50.

Sequence of human Farnesoid X receptor ligand-binding domain/Gal4 DNA binding domain chimera (Q96RI1 262-486, change not shown): as the sequence (Q96RI1 262-486) above
Sequence of human Farnesoid X receptor ligand-binding domain/Gal4 DNA binding domain chimera (P04386 1-147 partner): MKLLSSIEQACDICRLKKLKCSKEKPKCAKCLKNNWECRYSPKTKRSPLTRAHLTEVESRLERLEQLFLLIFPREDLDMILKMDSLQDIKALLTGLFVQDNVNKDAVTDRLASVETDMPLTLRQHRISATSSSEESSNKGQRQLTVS

In general, pEC50 refers to the EC50 on a negative log10 scale, so that one unit is a factor of ten. Lower therefore signals a high EC50. As a reminder, the EC50 is the concentration giving half of the maximal effect. High values mean lower potency in that assay, low ones higher potency in that assay. As for `O=C(NS(=O)(=O)C1CCOCC1)c1ccc(N2C[C@@H]3C[C@H]2C[C@H]3OCc2c(C3CCC4(CC3)CC4)noc2C2CC2)c(F)c1` [Compound I-230, 4-((1S,4S,5R)-5-((5-cyclopropyl-3-(spiro[2.5]octan-6-yl)isoxazol-4-yl)methoxy)-2-azabicyclo[2.2.1]heptan-2-yl)-3-fluoro-N-((tetrahydro-2H-pyran-4-yl)sulfonyl)benzamide], in experiment [1], the pEC50 is on record as 8 and the Emax came out at 150%. In addition, in experiment [2], the Emax amounted to 104%. The EC50 in experiment [2] (setting [3]) is 6.31 nM.
With `O=C(O)c1ccc(N2C[C@@H]3C[C@H]2C[C@H]3OCc2c(-c3c(F)cccc3Cl)noc2C2CC2)cc1` [Compound I-118, 4-[(1S,4S,5R)-5-{[3-(2-chloro-6-fluorophenyl)-5-cyclopropyl-1,2-oxazol-4-yl]methoxy}-2-azabicyclo[2.2.1]heptan-2-yl]benzoic Acid], in experiment [1], the pEC50 amounted to 8.6 and the Emax stood at 145%. Moreover, the Emax in experiment [2] came out at 108%. This compound also gave an EC50 in experiment [2] (setting [3]) of 7.94 nM.
`O=C1OCc2cc(N3C[C@@H]4C[C@H]3C[C@H]4OCc3c(-c4c(Cl)cccc4Cl)noc3C3CC3)ccc21` [Compound I-141, 5-[(1S,4S,5R)-5-{[5-cyclopropyl-3-(2,6-dichlorophenyl)-1,2-oxazol-4-yl]methoxy}-2-azabicyclo[2.2.1]heptan-2-yl]-1,3-dihydro-2-benzofuran-1-one]: in experiment [1], the pEC50 stood at 7 and the Emax turned out to be 137%. In experiment [2], the Emax is 106%. The compound also had an EC50 in experiment [2] (setting [3]) of 63.1 nM.
The corresponding values for `O=C(NS(=O)(=O)C1CC1)c1ccc(N2C[C@@H]3C[C@H]2C[C@H]3OC(=O)c2c(-c3c(Cl)cccc3Cl)noc2C2CC2)cc1` [Compound I-47, (1S,4S,5R)-2-{4-[(cyclopropanesulfonyl)carbamoyl]phenyl}-2-azabicyclo[2.2.1]heptan-5-yl 5-cyclopropyl-3-(2,6-dichlorophenyl)-1,2-oxazole-4-carboxylate] are 7.8, 174%, 106% and 15.8 nM.
The corresponding values for `Cc1cccc(Cl)c1-c1noc(C2CC2)c1CO[C@@H]1C[C@@H]2C[C@H]1CN2c1nc2c([C@@H]3CCOC3)cc(C(=O)O)cc2s1` [Compound I-273, 2-((1S,4S,5R)-5-((3-(2-chloro-6-methylphenyl)-5-cyclopropylisoxazol-4-yl)methoxy)-2-azabicyclo[2.2.1]heptan-2-yl)-4-((S)-tetrahydrofuran-3-yl)benzo[d]thiazole-6-carboxylic Acid] are 8.4, 132%, 106% and 0.398 nM.
Consider `CCc1cc(N2C(=O)[C@@H]3C[C@H]2C[C@H]3OCc2c(-c3c(Cl)cccc3Cl)noc2C2CC2)ccc1C(=O)O` [Compound I-318, 4-[(1S,4R,5R)-5-{[5-cyclopropyl-3-(2,6-dichlorophenyl)-1,2-oxazol-4-yl]methoxy}-3-oxo-2-azabicyclo[2.2.1]heptan-2-yl]-2-ethylbenzoic Acid], for which, in experiment [1], the pEC50 is given as 7.2 and the Emax was 127%. In addition, in experiment [2], the Emax was found to be 116%. Besides, the EC50 in experiment [2] (setting [3]) is 6.31 nM.
`CC[N+](C)(CC)CCCCCCCCCCS(=O)(=O)NC(=O)c1ccc(N2C[C@@H]3C[C@H]2C[C@H]3OCc2c(-c3c(Cl)cccc3Cl)noc2C2CC2)c(F)c1` [Compound I-226]: the Emax in experiment [1] came to 148%; in experiment [2], 152%. This compound also showed a pEC50 in experiment [2] (setting [3]) of 6.6.
`COc1cc(Cl)c(-c2noc(C3CC3)c2CO[C@@H]2C[C@@H]3C[C@H]2CN3c2nc3c(F)cc(C(=O)O)cc3s2)c(Cl)c1` [Compound I-286, 2-[(1S,4S,5R)-5-{[5-cyclopropyl-3-(2,6-dichloro-4-methoxyphenyl)-1,2-oxazol-4-yl]methoxy}-2-azabicyclo[2.2.1]heptan-2-yl]-4-fluoro-1,3-benzothiazole-6-carboxylic Acid]: in experiment [1], the pEC50 was found to be 8.7 and the Emax was 130%. For the same compound, the Emax in experiment [2] was 108%. Also, it took 39.8 nM to reach a half-maximal effect in experiment [2] (setting [3]) (EC50).
`O=C(O)c1cnc(N2C[C@@H]3C[C@H]2C[C@H]3OCc2c(-c3c(Cl)cccc3Cl)noc2C2(F)CC2)c(F)c1` [Compound I-130, 6-[(1S,4S,5R)-5-{[3-(2,6-dichlorophenyl)-5-(1-fluorocyclopropyl)-1,2-oxazol-4-yl]methoxy}-2-azabicyclo[2.2.1]heptan-2-yl]-5-fluoropyridine-3-carboxylic Acid]: the pEC50 in experiment [1] is reported as 8. The Emax in experiment [1] is 152%; in experiment [2], 99%. The same compound had an EC50 in experiment [2] (setting [3]) of 7.94 nM.
Turning to `O=C(NS(=O)(=O)CC1CCOC1)c1ccc(N2C(=O)[C@@H]3C[C@H]2C[C@H]3OCc2c(-c3c(Cl)cccc3Cl)noc2C2CC2)cc1` (stereo partly drawn) [Compound I-341, 4-((1S,4R,5R)-5-((5-cyclopropyl-3-(2,6-dichlorophenyl)isoxazol-4-yl)methoxy)-3-oxo-2-azabicyclo[2.2.1]heptan-2-yl)-N-(((tetrahydrofuran-3-yl)methyl)sulfonyl)benzamide], in experiment [1], the pEC50 is given as 8.7 and the Emax stood at 164%. Moreover, the Emax in experiment [2] was 109%. The midpoint of the response in experiment [2] (setting [3]), the EC50, lay at 10 nM.
The like results for `CCCS(=O)(=O)NC(=O)c1ccc(N2C[C@@H]3C[C@H]2C[C@H]3OCc2c(-c3c(Cl)cccc3Cl)noc2C2CC2)nc1` [Compound I-204, 6-((1S,4S,5R)-5-((5-cyclopropyl-3-(2,6-dichlorophenyl)isoxazol-4-yl)methoxy)-2-azabicyclo[2.2.1]heptan-2-yl)-N-(propylsulfonyl)nicotinamide] were, in that order, 8.4, 136%, 104% and 2.51 nM.
`O=C(O)c1ccc2nc(N3C[C@@H]4C[C@H]3C[C@@H]4OC(=O)c3c(-c4c(Cl)cccc4Cl)noc3C3CC3)sc2c1` [Compound I-35, 2-[(1S,4S,5S)-5-[5-cyclopropyl-3-(2,6-dichlorophenyl)-1,2-oxazole-4-carbonyloxy]-2-azabicyclo[2.2.1]heptan-2-yl]-1,3-benzothiazole-6-carboxylic Acid] came in with a pEC50 in experiment [1] of more than 4.5. In addition, the Emax in experiment [2] amounted to 19%. In experiment [2] (setting [3]), this compound showed an EC50 of 631 nM.
`CCCS(=O)(=O)NC(=O)c1cc(F)c2nc(N3C[C@@H]4C[C@H]3C[C@H]4OCc3c(-c4c(Cl)cccc4Cl)noc3C3CC3)sc2c1` [Compound I-29, 2-[(1S,4S,5R)-5-{[5-cyclopropyl-3-(2,6-dichlorophenyl)-1,2-oxazol-4-yl]methoxy}-2-azabicyclo[2.2.1]heptan-2-yl]-4-fluoro-N-(propane-1-sulfonyl)-1,3-benzothiazole-6-carboxamide] gave a pEC50 in experiment [1] of 7.8. Also, the Emax in experiment [1] is 194%; in experiment [2] it was 118%. This compound also showed an EC50 in experiment [2] (setting [3]) of 1.58 nM.
The corresponding values for `CC(=O)OCCCS(=O)(=O)NC(=O)c1ccc(N2C[C@@H]3C[C@H]2C[C@H]3OCc2c(-c3c(Cl)cccc3Cl)noc2C2CC2)cc1` [Compound I-214, 3-[({4-[(1S,4S,5R)-5-{[5-cyclopropyl-3-(2,6-dichlorophenyl)-1,2-oxazol-4-yl]methoxy}-2-azabicyclo[2.2.1]heptan-2-yl]phenyl}formamido)sulfonyl]propyl Acetate] are 8.6, 138%, 105% and 2.51 nM.
For the compound `FC(F)(F)Oc1cc(-c2nn[nH]n2)cc2sc(N3C[C@@H]4C[C@H]3C[C@H]4OCc3c(-c4c(Cl)cccc4Cl)noc3C3CC3)nc12` [Compound I-27, 2-[(1S,4S,5R)-5-{[5-cyclopropyl-3-(2,6-dichlorophenyl)-1,2-oxazol-4-yl]methoxy}-2-azabicyclo[2.2.1]heptan-2-yl]-4-trifluoromethoxy-6-(2H-1,2,3,4-tetrazol-5-yl)-1,3-benzothiazole], the Emax in experiment [1] was 130%; in experiment [2], 94%. The EC50 in experiment [2] (setting [3]) is 2 nM.
Regarding `CCCS(=O)(=O)NC(=O)c1ccc(N2C[C@@H]3C[C@H]2C[C@H]3OC(=O)c2c(-c3c(Cl)cccc3Cl)noc2C2CC2)c(F)c1` [Compound I-49, (1S,4S,5R)-2-{2-fluoro-4-[(propane-1-sulfonyl)carbamoyl]phenyl}-2-azabicyclo[2.2.1]heptan-5-yl 5-cyclopropyl-3-(2,6-dichlorophenyl)-1,2-oxazole-4-carboxylate], the pEC50 in experiment [1] came out at 8. The Emax is 188% in experiment [1] and 118% in experiment [2]. The same compound gave an EC50 in experiment [2] (setting [3]) of 3.98 nM.
The like results for `O=C(NS(=O)(=O)C1CC1)c1ccc(N2C[C@@H]3C[C@H]2C[C@H]3OCc2c(-c3c(Cl)cccc3Cl)noc2C2(F)CC2)c(F)c1` [Compound I-197, N-(cyclopropylsulfonyl)-4-((1S,4S,5R)-5-((3-(2,6-dichlorophenyl)-5-(1-fluorocyclopropyl)isoxazol-4-yl)methoxy)-2-azabicyclo[2.2.1]heptan-2-yl)-3-fluorobenzamide] were, in that order, 8.5, 167%, 111% and 0.501 nM.
The like results for `O=C(CCc1ccc(N2C[C@@H]3C[C@H]2C[C@H]3OCc2c(-c3c(F)cccc3Cl)noc2C2CC2)c(F)c1)NS(=O)(=O)C1CC1` [Compound I-240, 3-(4-((1S,4S,5R)-5-((3-(2-chloro-6-fluorophenyl)-5-cyclopropylisoxazol-4-yl)methoxy)-2-azabicyclo[2.2.1]heptan-2-yl)-3-fluorophenyl)-N-(cyclopropylsulfonyl)propanamide] were, in that order, 8.1, 162%, 92% and 6.31 nM.
